In data set [1] the test system is collagen expression; matrix metalloproteinases (MMPs) and TIMPs. As to conditions: reported; cited from earlier work.
Data set [2] concerns SIV infection. As to the kind of experiment: 24-week study of pirfenidone plus ARV versus ARV only in SIV infection (FIG. 6 protocol, Example 4). The class given is in vivo. The method, then: FIG. 6 depicts a study protocol wherein pirfenidone is administered from Week −2 (relative to SIV infection) through the end of the study and co-administration of antiretroviral therapy is initiated at Week 8 and continued through the end of the study.
This example describes a 24-week study according to the protocol depicted in FIG. 6. In short, there were two groups in the study. The first group (group C as depicted in FIG. 6) received only ARV beginning at Week 8 (relative to SIV infection) of the study and continuing through week 24. The second group (group D as depicted in FIG. 6) received pirfenidone beginning at week −2 of the study and ARV beginning at Week 8. Both pirfenidone and ARV were then co-administered through Week 24 of the study. Tissues were biopsied at Week −2. Additional biopsies were conducted at Weeks 12, 16 and 24 (after sacrifice of the animal).

The subject of data set [3] is TNF-α, TGF-β1, bFGF, PDGF, and EGF. The settings on record: reported in Zhang et al. 1998; Cain et al. 1998; cited from earlier work.
Data set [4] concerns SIV MAC239. The data set can be described thus: Pirfenidone in SIV-infected non-human primate model (FIG. 1 protocol, Example 2). In kind it is in vivo. The text has this:
Venous blood will be used to measure CD4^+ cell count by flow cytometry. Tissue biopsies (LN and ileal GALT samples) are divided; one portion will be processed by immunohistochemical staining for quantitative image analysis to determine the absolute size of the total CD4^+ cell population, and the remaining portion will be processed by flow cytometry to proportionately quantify CD4^+ cells (total, naïve, central memory [CM], and effector memory [EM] T cells). These methods have been published elsewhere [Schacker et al., 2006, Clinical and Vaccine Immunology 13:556-60; Schacker et al., 2005, AIDS 19:2169-71; Schacker et al., 2002, J Clin Invest 110:1133-9; Schacker J Infect Dis 186:1092-7]. For flow cytometry, a portion of LN tissue and GALT will be placed on ice and CD4^+ cells are isolated within 24 hours by gently separating the cells from surrounding tissue by using a mesh screen. One million cells are washed once in FACS wash (PBS supplemented with 0.1% sodium azide and 2% bovine serum albumin; Sigma). After aspiration of the supernatant, cells will be stained with peridin clorophylla protein-conjugated CD4, allophycocyanin conjugated CD8, phycoerythrin conjugated CD27, and fluorescein isothiocyanate-conjugated CD45RO (all BD Pharmingen), and incubated for 30 min at 4° C., followed by another wash. Cells will be fixed with 1% paraformaldahyde (Electron Microscopy Sciences) and analyzed on a FACS Calibur flow cytometer (BD Pharmingen). Lymphocytes will be gated on the basis of characteristic forward and side scatter properties, followed by separation into CD4^+ T cells and CD8^+ T cells on the basis of expression of CD4 and CD8. Naive T cells are classified by expression of CD27 without expression of CD45RO, as described elsewhere [Brenchley et al., 2003, Blood 101:2711-20]. CM T cells will be classified by coexpression of CD27 and CD45RO, and EM T cells are classified by lack of CD27 expression.
To quantify the total CD4^+ T cell population in each compartment, 4-μm sections will be prepared from the fixed tissues and stained with antibody for CD4 by using either clone 1F6 (Ventana Medical Systems) or clone 4B12 (Neomarkers; Lab Vision). Images will be captured to quantify the percentage of tissue area occupied by CD4 by using PHOTOSHOP CS2, version 9.0 imaging software (ADOBE SYSTEMS, Inc.) with plug-ins from REINDEER GRAPHICS. Inc.
To quantify collagen in the TZ, methods similar to those previously published can be used [Schacker et al., 2002, J. Clin. Investig. 110:1133-1139]. Sections (4 μm) are stained using a modified trichrome stain to identify collagen fibers, and approximately 18 images from the TZ are captured and transported into PHOTOSHOP CS imaging software (ADOBE SYSTEMS, Inc.). Image analysis tools from REINDEER GRAPHICS, Inc. (Asheville, N.C.) may provide better sensitivity for isolating collagen fibers to quantify the percent area occupied by collagen.
In this study, six animals were divided into two groups of three animals each. One group received pirfenidone for 2 weeks and then was infected with SIV MAC239. […] Pirfenidone was continued for 12 weeks following infection and then discontinued for 12 weeks (i.e., week 24) and then restarted. Thus, the pirfenidone-treated group would receive pirfenidone from week −2 to week 12 (14 weeks) and from week 24 to week 36 (12 weeks) for a […]. […] The dose of pirfenidone used was 200 mg/kg orally, twice daily (BID) for a total daily dose of 400 mg/kg/day. This corresponds to a human dose of approximately 6.5 mg/kg BID.
A diagram of the protocol can be seen in FIG. 1. Lymph node and rectal biopsy samples were collected at day 0 and again at weeks 4, 12, 24, and 36 after infection. […]

SMILES strings stand for the structures. “Also recorded” adds a separate entry of the source.

On to `Cc1ccc(=O)n(-c2ccccc2)c1` [pirfenidone], for which, in data set [1], the “balance of matrix metalloproteinases (MMPs) and their endogenous inhibitors (TIMPs)” value is recorded as “alter”; the collagen expression result is on record as “decrease”. Also, the “proportion of the TZ occupied by collagen (composite, FIG. 12A)” value in data set [2] (ARV + pirfenidone arm vs ARV only) was “lower”. In addition, the “increase in the TZ area staining positive for CD4+ T cells upon initiation of ARV” value in data set [2] (animals treated with pirfenidone vs ARV only, FIG. 11D) is “greater increase”. Further, the “rate of change in CD4+ area in TZ” value in data set [2] (co-administration of pirfenidone and ARV relative to ARV alone, FIG. 12B) is recorded as “improves”. For the same compound, in data set [2] (group D (pirfenidone + ARV) relative to group C (ARV only), week 16 through week 24, FIG. 9), the “absolute number of naïve CD4 T cells of the TZ” value is “increase”. In addition, the “number of CD4 T cells in the TZ (TZ area staining positive for CD4+ T cells)” value in data set [2] (group D (pirfenidone + ARV) relative to group C (ARV only), week 16 through week 24, FIGS. 8, 11D) was “increased; also recorded: more of the TZ stains positive for CD4^+ T cells”. Further, the “percentage of CD4 T cells in GALT” value in data set [2] (group D (pirfenidone + ARV) relative to group C (ARV only), week 24, FIG. 10) is “increased”. The “percentage area of the T cell zone with collagen” value in data set [2] (group D (pirfenidone from week -2 + ARV from week 8) relative to group C (ARV only), FIGS. 7, 11B) is recorded as “significantly lower; also recorded: significant reduction”. The “excessive biosynthesis or release of various cytokines such as TNF-α, TGF-β1, bFGF, PDGF, and EGF” value in data set [3] is “inhibit”. For the same compound, the “tolerability, adverse effects or toxicity” value in data set [4] (200 mg/kg orally BID (400 mg/kg/day)) is reported as “well-tolerated without adverse effects or toxicity”. The “peripheral blood CD4 T cell count” value in data set [4] (pirfenidone 200 mg/kg BID orally vs animals not given pirfenidone, FIG. 3A) is “no significant change; also recorded: no obvious difference”. Moreover, the “percent CD4 (CD4%) in peripheral blood” value in data set [4] (pirfenidone 200 mg/kg BID orally vs animals not given pirfenidone, FIG. 3B) was “no significant change; also recorded: no obvious difference”. Further, the “plasma SIV RNA load (viral load)” value in data set [4] (pirfenidone 200 mg/kg BID orally vs animals not given pirfenidone, FIG. 3C) is recorded as “no significant change; also recorded: no obvious difference”. For the same compound, the “fibrosis (percent area of T cell zone occupied by collagen) in lymph nodes” value in data set [4] (pirfenidone 200 mg/kg BID vs animals not given pirfenidone, FIGS. 4, 5A, 11A) is “decreased; also recorded: significant reduction; also recorded: less fibrosis; also recorded: significant difference”. The “size of the CD4+ T cell population (area staining positive for CD4) in lymph node T cell zone” value in data set [4] (pirfenidone 200 mg/kg BID vs animals not given pirfenidone, FIGS. 4, 5B, 11C) is recorded as “increased; also recorded: more of the TZ stains positive for CD4^+ T cells; also recorded: higher CD4 numbers; also recorded: significant difference”. The “proportion of the TZ occupied by collagen (composite, FIG. 12A)” value in data set [4] (pirfenidone only arm vs no treatment) is “lower”. In addition, the “CD4 population in Peyer's Patches” value in data set [4] (pirfenidone vs control animals, FIG. 4D) was “higher”.

The record behind these values is US20120014917A1, “METHODS OF TREATING HIV PATIENTS WITH ANTI-FIBROTICS” (University of Minnesota, priority 2009, published 2012).
